The data set concerns GENE-TOX genotoxicity assays, various organisms and cells. The experiment in a line: GENE-TOX mutagenicity studies. The source says:
GENE-TOX provides genetic toxicology (mutagenicity) test data from expert peer review of open scientific literature for more than 3,000 chemicals from the United States Environmental Protection Agency (EPA). GENE-TOX was established to select assay systems for evaluation, review data in the scientific literature, and recommend proper testing protocols and evaluation procedures for these systems.
GENE-TOX covers the years 1991 - 1998. It is no longer updated.
This is an archive assay for GENE-TOX mutagenicity studies.

Where [1] appears, read: Species/Cell Type: Salmonella typhimurium (one or more of the five standard strains: TA98, TA100, TA1535, TA1537, and TA1538), Assay Type: Histidine reverse gene mutation, Ames assay, Assay Code: SAL+, Evaluation Type: Evaluation A (Pre-1980).
The mark [2] stands for this setting: Species/Cell Type: Salmonella typhimurium (one or more of the five standard strains: TA98, TA100, TA1535, TA1537, and TA1538), Assay Type: Histidine reverse gene mutation, Ames assay, Assay Code: SAL+*, Activation: With metabolic activation, Evaluation Type: Evaluation A (Pre-1980).
Setting [3] is: Species/Cell Type: Human, Assay Type: Sister-chromatid exchange (SCE) in vitro, Assay Code: SC1+D, Dose Response: With dose response, Evaluation Type: Evaluation B (Post-1980).
[4] abbreviates: Species/Cell Type: Saccharomyces cerevisiae, Assay Type: Mitotic recombination or gene conversion, Assay Code: YEH-, Evaluation Type: Evaluation A (Pre-1980).
Where [5] appears, read: Species/Cell Type: Salmonella typhimurium (one or more of the five standard strains: TA98, TA100, TA1535, TA1537, and TA1538), Assay Type: Histidine reverse gene mutation, Ames assay, Assay Code: SALT, Evaluation Type: Evaluation A (Pre-1980).
Where [6] appears, read: Species/Cell Type: Drosophila melanogaster, Assay Type: Sex-linked recessive lethal gene mutation, Assay Code: SRLT, Evaluation Type: Evaluation A (Pre-1980).
Where [7] appears, read: Species/Cell Type: Salmonella typhimurium (one or more of the five standard strains: TA98, TA100, TA1535, TA1537, and TA1538), Assay Type: Histidine reverse gene mutation, Ames assay, Assay Code: SAL-, Evaluation Type: Evaluation A (Pre-1980).
Setting [8] is: Species/Cell Type: Mammalian polychromatic erythrocytes, Assay Type: Micronucleus test, chromosome aberrations, Assay Code: MNT+, Evaluation Type: Evaluation B (Post-1980).
Where [9] appears, read: Species/Cell Type: Bacillus subtilis (H17 vs M45), Assay Type: Rec-assay, spot test, DNA effects (bacterial DNA repair), Assay Code: REW+, Evaluation Type: Evaluation A (Pre-1980).
[10] abbreviates: Species/Cell Type: Nonhuman, Assay Type: Sister-chromatid exchange (SCE) in vitro, Assay Code: SC2T, Evaluation Type: Evaluation B (Post-1980).

Calls of active or inactive are those of the source. How the calls were made is not given here.

`O=CNc1nc(-c2ccc([N+](=O)[O-])s2)cs1`: the mutagenic call under setting [1] was “active; positive”.

`N#Cc1cc(I)c(O)c([N+](=O)[O-])c1`: the mutagenic call (Species/Cell Type: Mammalian polychromatic erythrocytes, Assay Type: Micronucleus test, chromosome aberrations, Assay Code: MNTT, Evaluation Type: Evaluation B (Post-1980)) was “no conclusion”.

Consider `CCCCN(CCC(C)=O)N=O`, for which the mutagenic call under setting [2] is “active; positive”.

Consider `CCOP(=S)(OCC)SCSCC`, for which the mutagenic call (Species/Cell Type: Bacillus subtilis (H17 vs M45), Assay Type: Rec-assay, spot test, DNA effects (bacterial DNA repair), Assay Code: REWT, Evaluation Type: Evaluation A (Pre-1980)) is “no conclusion”; the mutagenic call (Species/Cell Type: Drosophila melanogaster, Assay Type: Sex-linked recessive lethal gene mutation, Assay Code: SRL-, Evaluation Type: Evaluation A (Pre-1980)) is “inactive; negative”; the mutagenic call (Species/Cell Type: Escherichia coli WP2 UVRA, Assay Type: Tryptophan reverse gene mutation, Assay Code: WPU-*, Activation: With metabolic activation, Evaluation Type: Evaluation A (Pre-1980)) is “inactive; negative”; the mutagenic call (Species/Cell Type: Escherichia coli polA (W3119 vs P3478), Assay Type: Rec-assay, DNA effects (bacterial DNA repair), Assay Code: RE1T, Evaluation Type: Evaluation A (Pre-1980)) is given as “no conclusion”; the mutagenic call (Species/Cell Type: Hordeum vulgare (barley), Assay Type: Chromosome aberrations, Assay Code: HOC+D, Dose Response: With dose response, Evaluation Type: Evaluation A (Pre-1980)) is “active; positive”; the mutagenic call (Species/Cell Type: Human diploid fibroblasts, Assay Type: Unscheduled DNA synthesis (UDS) in vitro, DNA effects, Assay Code: UDH-, Evaluation Type: Evaluation A (Pre-1980)) is “inactive; negative”. In addition, the mutagenic call is, setting by setting: under setting [3], “active; positive”; (Species/Cell Type: Mammalian polychromatic erythrocytes, Assay Type: Micronucleus test, chromosome aberrations, Assay Code: MNT+U, Dose Response: Unconfirmed positive response, Evaluation Type: Evaluation B (Post-1980)) “active; positive”; under setting [4], “inactive; negative”; under setting [5], “no conclusion”.

Consider `O=c1[nH]cc[nH]1`, for which the mutagenic call under setting [6] is reported as “no conclusion”.

On to `CC(C)c1ccccc1`, for which the mutagenic call is “inactive; negative” under setting [4] and “inactive; negative” under setting [7].

For `CCN(CC)c1ccc(C(=C2C=CC(=[N+](CC)CC)C=C2)c2ccc(S(=O)(=O)O)cc2S(=O)(=O)[O-])cc1`, the mutagenic call under setting [8] was “active; positive”.

Consider `O=c1c(O)c(-c2ccc(O)cc2)oc2cc(O)cc(O)c12`, for which the mutagenic call is “active; positive” under setting [8] and “active; positive” (Species/Cell Type: Nonhuman, Assay Type: Sister-chromatid exchange (SCE) in vitro, Assay Code: SC2+D*, Activation: With metabolic activation, Dose Response: With dose response, Evaluation Type: Evaluation B (Post-1980)).

Regarding `C/C=C(\C(=C/C)c1ccc(O)cc1)c1ccc(O)cc1`, under setting [3], the mutagenic call is “active; positive”.

As to `CCCCCCCCCCCCCC(=O)N(OC(C)=O)c1ccc2c(c1)Cc1ccccc1-2`, the mutagenic call (Species/Cell Type: Human diploid fibroblasts, Assay Type: Unscheduled DNA synthesis (UDS) in vitro, DNA effects, Assay Code: UDH+, Evaluation Type: Evaluation A (Pre-1980)) is “active; positive” and the mutagenic call under setting [1] is “active; positive”.

As to `C1CCCCC1`, the mutagenic call was “inactive; negative” under setting [7] and “inactive; negative” (Species/Cell Type: Syrian hamster embryo (SA7/SHE) cells, Assay Type: Cell transformation, viral enhanced, Assay Code: CT7-, Evaluation Type: Evaluation A (Pre-1980)).

As for `c1c(N2CC2)nc(N2CC2)nc1N1CC1`, the mutagenic call (Species/Cell Type: Aspergillus nidulans, Assay Type: Reverse gene mutation, Assay Code: ASR+, Evaluation Type: Evaluation A (Pre-1980)) was “active; positive”.

`CCCCC1C(=O)N(c2ccccc2)N(c2ccccc2)C1=O`: the mutagenic call runs as follows: (Species/Cell Type: Mammalian germ cells, Sex: Male, Assay Type: Chromosome aberrations in vivo, Assay Code: CY9-, Evaluation Type: Evaluation A (Pre-1980)) “inactive; negative”; under setting [8], “active; positive”; (Species/Cell Type: Mammalian polychromatic erythrocytes, Assay Type: Micronucleus test, chromosome aberrations, Assay Code: MNTT, Evaluation Type: Evaluation A (Pre-1980)) “no conclusion”; (Species/Cell Type: Rodents, Sex: Male, Assay Type: Dominant lethal test, Assay Code: DLT-, Evaluation Type: Evaluation A (Pre-1980)) “inactive; negative”; under setting [5], “no conclusion”.

In the case of `CN(N=O)C(=O)c1ccc(C(=O)N(C)N=O)cc1`, the mutagenic call is, setting by setting: (Species/Cell Type: Arabidopsis species, Assay Type: Gene mutation, Assay Code: ARM-, Evaluation Type: Evaluation A (Pre-1980)) “inactive; negative”; (Species/Cell Type: Saccharomyces cerevisiae, Assay Type: Mitotic recombination or gene conversion, Assay Code: YEH+, Evaluation Type: Evaluation A (Pre-1980)) “active; positive”; (Species/Cell Type: Saccharomyces cerevisiae, Assay Type: Reverse gene mutation, Assay Code: YER-, Evaluation Type: Evaluation A (Pre-1980)) “inactive; negative”.

Take `O=C(O)C(c1ccc(Cl)cc1)c1ccc(Cl)cc1`: the mutagenic call runs as follows: (Species/Cell Type: Drosophila melanogaster, Assay Type: Sex-linked recessive lethal gene mutation, Assay Code: SRL+, Evaluation Type: Evaluation A (Pre-1980)) “active; positive”; (Species/Cell Type: Nonhuman, Assay Type: Chromosome aberrations in vitro, Assay Code: CY&-, Evaluation Type: Evaluation A (Pre-1980)) “inactive; negative”; (Species/Cell Type: Salmonella typhimurium, Serratia marcesens, Assay Type: Forward and reverse gene mutation, host-mediated assay, Assay Code: HM2-, Evaluation Type: Evaluation A (Pre-1980)) “inactive; negative”.

As for `O=C(O)c1ccc([N+](=O)[O-])cc1`, the mutagenic call (Species/Cell Type: Salmonella typhimurium, Assay Type: Forward and reverse gene mutation, host-mediated assay, Assay Code: HMA-, Evaluation Type: Evaluation A (Pre-1980)) is “inactive; negative”.

Consider `CC1=C2C(=CO[C@H](C)[C@H]2C)C(=O)C(C(=O)O)=C1O`, for which the mutagenic call under setting [9] was “active; positive” and the mutagenic call under setting [4] is “inactive; negative”.

In the case of `CCN(CC)Cc1cc(Br)ccc1OCC(=O)N/N=C\c1ccccc1`, for the setting “Species/Cell Type: Saccharomyces cerevisiae, Assay Type: Reverse gene mutation, Assay Code: YERT, Evaluation Type: Evaluation A (Pre-1980)”, the mutagenic call was “no conclusion”.

On to `O=c1[nH]c(=O)n([C@H]2C[C@H](O)[C@@H](CO)O2)cc1/C=C/Br`, for which the mutagenic call is “active; positive” (Species/Cell Type: Human lymphocytes, Assay Type: Sister-chromatid exchange (SCE) in vitro, Assay Code: SCL+, Evaluation Type: Evaluation B (Post-1980)) and “active; positive” under setting [3].

Take `CC1=CCCc2c1cc(C)c1c2ccc2ccccc21`: the mutagenic call under setting [2] was “active; positive”.

Take `Oc1ccc(Cl)cc1Cl`: the mutagenic call under setting [5] is on record as “no conclusion”.

For the compound `COC(=O)COc1ccc(Br)cc1CCl` (tested in a mixture with another compound), the mutagenic call (Species/Cell Type: Saccharomyces cerevisiae, Assay Type: Reverse gene mutation, Assay Code: YER+, Evaluation Type: Evaluation A (Pre-1980)) is “active; positive”.

As to `CCCCCCCCC1CC1CCCCCCCC(=O)OCCOCCOC` (configuration not stated), the mutagenic call under setting [10] was “no conclusion”.

`F/C(=C(/F)C(F)(F)F)C(F)(F)F`: the mutagenic call under setting [6] is recorded as “no conclusion”.

Regarding `Nc1nccc2c1[nH]c1ccccc12`, the mutagenic call by setting is: under setting [3], “active; positive”; under setting [10], “no conclusion”.

Take `Cc1cn([C@H]2CC[C@@H](COP(=O)(O)OP(=O)(O)OP(=O)(O)O)O2)c(=O)[nH]c1=O`: under setting [10], the mutagenic call is on record as “no conclusion”.

`[Cl-].[Cl-].[NH2-].[NH2-].[NH2-].[NH2-].[Pt+2]`: the mutagenic call (Species/Cell Type: Chinese hamster ovary (CHO) cells, Assay Type: Forward gene mutation at the HPRT locus, Assay Code: CHOT, Evaluation Type: Evaluation B (Post-1980)) is “no conclusion”.

With `CN=[N+]([O-])Cc1ccc(C(=O)NC(C)C)cc1`, the mutagenic call (Species/Cell Type: Nonhuman, Assay Type: Sister-chromatid exchange (SCE) in vitro, Assay Code: SC2+, Evaluation Type: Evaluation B (Post-1980)) was “active; positive”.

`NNCCO`: the mutagenic call by setting is: under setting [9], “active; positive”; (Species/Cell Type: Escherichia coli WP2, Assay Type: Tryptophan reverse gene mutation, Assay Code: WP2+, Evaluation Type: Evaluation A (Pre-1980)) “active; positive”; (Species/Cell Type: Escherichia coli WP2 UVRA, Assay Type: Tryptophan reverse gene mutation, Assay Code: WPU+, Evaluation Type: Evaluation A (Pre-1980)) “active; positive”; (Species/Cell Type: Nonhuman, Assay Type: Sister-chromatid exchange (SCE) in vitro, Assay Code: SC2+D, Dose Response: With dose response, Evaluation Type: Evaluation B (Post-1980)) “active; positive”; under setting [1], “active; positive”.
